Source: PubChem BioAssay (NCI)
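1) Cells in 96-well plates. 2) Compound, 48 h, 5 concentrations. 3) Linear interpolation between surrounding doses. 4) Unreached endpoint = highest concentration. TGI marks complete inhibition of growth.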

Legend:
Experiment in all cases: DTP human tumour cell line panel, 48 h
786-0 renal = test system: 786-0 renal
DU-145 prostate = test system: DU-145 prostate
HS 578T breast = test system: HS 578T breast
K-562 leukemia = test system: K-562 leukemia
LOX IMVI melanoma = test system: LOX IMVI melanoma
MDA-N = test system: MDA-N
RPMI-8226 leukemia = test system: RPMI-8226 leukemia
SF-268 CNS = test system: SF-268 CNS
SK-MEL-28 melanoma = test system: SK-MEL-28 melanoma
SK-OV-3 ovarian = test system: SK-OV-3 ovarian
SNB-19 CNS = test system: SNB-19 CNS
SNB-75 CNS = test system: SNB-75 CNS
SW-620 colon = test system: SW-620 colon
T-47D breast = test system: T-47D breast
UACC-62 melanoma = test system: UACC-62 melanoma
OVCAR-8 ovarian = test system: OVCAR-8 ovarian

SMILES	TGI (786-0 renal) [µM]	TGI (DU-145 prostate) [µM]	TGI (HS 578T breast) [µM]	TGI (K-562 leukemia) [µM]	TGI (LOX IMVI melanoma) [µM]	TGI (MDA-N) [µM]	TGI (RPMI-8226 leukemia) [µM]	TGI (SF-268 CNS) [µM]	TGI (SK-MEL-28 melanoma) [µM]	TGI (SK-OV-3 ovarian) [µM]	TGI (SNB-19 CNS) [µM]	TGI (SNB-75 CNS) [µM]	TGI (SW-620 colon) [µM]	TGI (T-47D breast) [µM]	TGI (UACC-62 melanoma) [µM]	TGI (OVCAR-8 ovarian) [µM]
Cc1cccc(-c2cc(=S)c3cc(N4CCCC4)ccc3[nH]2)c1	> 100	> 100	> 100	> 100	> 100	> 100	> 100	> 100	> 100	> 100	> 100	> 100	> 100	> 100	> 100	–
CCOC(=O)CCC(NC(=O)c1ccc(Nc2nc3ccccc3nc2-c2cccs2)cc1)C(=O)OCC (stereo not given)	> 100	> 100	> 100	> 100	> 100	> 100	> 100	> 100	> 100	> 100	> 100	> 100	> 100	> 100	> 100	> 100
CC(=O)N[C@H]1CCCC[C@@H]1OC(C)=O	> 100	> 100	> 100	> 100	> 100	> 100	> 100	–	> 100	> 100	–	> 100	> 100	> 100	> 100	> 100
CC(NC(=O)OC(C)(C)C)C(=O)C(N)=O (stereo not given)	> 100	> 100	> 100	> 100	> 100	> 100	> 100	> 100	> 100	> 100	> 100	> 100	> 100	> 100	–	> 100
COC(=O)CCn1cnc2c(SC)ncnc21	> 100	> 100	> 100	> 100	> 100	> 100	> 100	> 100	> 100	> 100	> 100	> 100	> 100	> 100	> 100	> 100
O=C(Cc1ccc(Cl)c(Cl)c1)N(CCc1ccc(Cl)c(Cl)c1)CCN1CCCC1	3	4.59	11.2	3.66	–	3.15	3.62	5.5	2.99	7.49	4.9	4.31	–	16.1	3.27	3.82
O=C(CCCl)NNC1=NCCN1	> 100	> 100	> 100	> 100	> 100	> 100	> 100	> 100	> 100	> 100	> 100	> 100	> 100	> 100	> 100	> 100
CCCCCCCCCCCCCCCCCCOCC(CO[P+](=O)O)OCCCCCCCCCCCCCCCCCC (stereo not given)	> 50	> 50	> 50	> 50	> 50	> 50	> 50	> 50	> 50	> 50	> 50	> 50	> 50	> 50	–	> 50
Cc1cc(C)c2c(=O)n(CN3CCC(O)(c4ccccc4)CC3)sc2n1	30.8	> 100	> 100	> 100	> 100	38.3	> 100	> 100	> 100	> 100	> 100	50.8	69.5	> 100	> 100	> 100
CC1(C)CN=C(Nc2cccc(C(F)(F)F)c2)S1	> 100	> 100	> 100	> 100	> 100	> 100	> 100	> 100	> 100	> 100	> 100	> 100	> 100	> 100	> 100	> 100
COc1cccc(/C=C2\CCCCCC2=O)c1	> 100	> 100	> 100	> 100	> 100	> 100	> 100	> 100	> 100	> 100	> 100	> 100	> 100	> 100	> 100	–
N#CC1=C(N)OC(c2ccc([N+](=O)[O-])cc2)C1(C#N)C#N (stereo not given)	25	32.1	64.9	> 100	21.6	24.6	18.7	> 54.3	26.9	> 100	> 53.2	44.6	33.9	43.2	24.3	32.3
OCCN(CCO)c1ccc2c(c1)Cc1ccccc1-2	> 100	> 100	> 100	> 100	> 100	> 100	> 100	> 100	> 100	> 100	> 100	–	> 100	57.8	> 100	> 100
COc1ccc(/C=C/C(=O)N[C@@H]2C(=O)N3[C@@H]2SC(C)(C)[C@@H]3C(=O)O)cc1	> 100	> 100	> 100	> 100	> 100	> 100	> 100	> 100	> 100	> 100	> 100	> 100	> 100	> 100	> 100	> 100
O=C(O)c1ccc(C(c2c(O)c3ccccc3oc2=O)c2c(O)c3ccccc3oc2=O)cc1	> 100	> 100	62.7	> 100	> 100	> 100	> 100	> 100	> 100	> 100	> 100	–	> 100	> 100	> 100	> 100
